Test results as given in US7326403B2, “Radioactive iodine-labeled compound” (FUJIFILM Corporation, priority 2003, dated 2008).

Tests used:
[1] = test system: LS180 (human colon cancer cell); experiment: Uptake experiment in tumor cells (LS180); assay type: cell-based; details: for uptake, percent dose converted to 100,000 cells: 0.5 μCi, mean ± S.D.
Procedure: (§1) (i) LS180 (Human Colon Cancer Cell), SHIN-III (Human Ovary Cancer Cell) and U87MG (Glioma)
(§2) A commercially available medium, RPMI1640 (Nissui, 5.1 g), was dissolved in extra pure water (500 ml), autoclaved, and added with L-glutamine (0.15 g), Meylon (7% aqueous sodium hydrogencarbonate, a pharmaceutical preparation for injection, 14 ml) and FBS (55 ml) in a clean bench to prepare a medium. Cells were cultured in this medium.
(§3) Cells cryopreserved in a medium containing 10% DMSO were thawed, transferred to a 15-ml Falcon tube, and added with PBS to a volume of 5 ml. The mixture was centrifuged at 1300 rpm for 5 minutes. The supernatant was removed by suction, and the precipitates were suspended in PBS (5 ml). The suspension was centrifuged again at 1300 rpm for 5 minutes. The supernatant was removed by suction, and the precipitates were suspended in a medium (10 ml), inoculated in a 10-cm dish and left standing at 37° C. in a 5% CO2 incubator.
(§4) After 3 days, when the cells were proliferated to 80 to 90% of the 10-cm dish, the cells were subcultured in a 15-cm dish.
(§5) The 10-cm dish was taken out from the incubator, and the supernatant was removed by suction. The cells were washed three times with PBS, added with trypsin-EDTA (0.05% trypsin, 0.53 mM EDTA tetrasodium salt, 1 ml) and PBS (1 ml) and left standing in a CO2 incubator for 10 minutes. The dish was taken out from the incubator, and separation of the cells was observed. Then, the cells were transferred to a 15-ml Falcon tube. The cells were added with PBS to a volume of 5 ml and centrifuged at 1300 rpm for 5 minutes, and the supernatant was removed by suction. The precipitates were suspended in PBS (5 ml) and centrifuged at 1300 rpm for 5 minutes, and the supernatant was removed by suction. The precipitates were suspended in a medium (8 ml), and inoculated in a volume of 4 ml each to two of 15-cm dishes, to which the medium (16 ml) was added beforehand, and left standing at 37° C. in a 5% CO2 incubator.
(§6) Two days before the uptake experiment, the cells were inoculated on a 24-well plate ([…] of cell-suspended medium/well, 5 wells/plate per one type of cell). […] For the 4 wells to which the compound of the present invention was added, the cells were separated with 0.2 N NaOH and subjected to measurement of radioactivity. For the remaining 1 well, trypsin-EDTA was added to separate the cells, and the number of cells was counted by using a blood cell counter. Percent doses, which were converted to values for 100,000 cells based on the number of cells and radioactivity, and ratios relative to the normal cells (NIH3T3) were calculated. […]

[2] = test system: SHIN-III (human ovary cancer cell); experiment: Uptake experiment in tumor cells (SHIN-III); assay type: cell-based; details: for uptake, percent dose converted to 100,000 cells: SHIN-III, 0.5 μCi, mean ± S.D.
Procedure: as §1, §2, §3, §4, §5, §6

U87MG (glioma) = experiment: Uptake experiment in tumor cells (U87MG); assay type: cell-based; details: for uptake, percent dose converted to 100,000 cells: U87MG, 0.5 μCi, mean ± S.D.
Procedure: as §1, §2, §3, §4, §5, §6

[3] = test system: NIH3T3 (fibroblast, control); experiment: Uptake experiment in normal control cells (NIH3T3); assay type: cell-based; details: 0.5 μCi, mean ± S.D.
Procedure: (ii) NIH3T3 (Fibroblast, Control)
as §2, with “DMEM medium (Nissui)” for “medium, RPMI1640 (Nissui, 5.1 g),”
as §3
After 1 week, when the cells were proliferated to 80 to 90% of the 10-cm dish, the cells were subcultured in a 15-cm dish.
The 10-cm dish was taken out from the incubator, and the supernatant was removed by suction. The cells were washed three times with PBS, added with trypsin-EDTA (0.05% trypsin, 0.53 mM EDTA tetrasodium salt, 1 ml) and PBS (1 ml) and left standing in a CO2 incubator for 10 minutes. The dish was taken out from the incubator, and separation of the cells was observed. Then, the cells were transferred to a 15-ml Falcon tube. […]
as §6

[4] = test system: SHIN-III human ovary cancer cells (tumor tissue vs muscle tissue); experiment: Distribution experiment in vivo, nude mice transplanted with SHIN-III; details: 18.5 kBq via caudal vein, 5, 10 and 30 minutes, FIG. 1
Procedure: 1.0×10^6 cells of SHIN-III human ovary cancer cells were subcutaneously inoculated in the femoral region of nude mice (male, 5-week old). […] After 5 minutes, 10 minutes and 30 minutes, the mice were sacrificed, and the weight and radioactivity of each organ were measured.

CCn1c(=O)/c(=C2\Sc3ccccc3N2Cc2ccc([125I])cc2)s/c1=C\c1cccc[n+]1CC [the compound of the present invention]
uptake, percent dose converted to 100,000 cells ([1]; LS180, after 30 minutes): 3.37 ± 0.31 % dose/100000 cells
uptake, percent dose converted to 100,000 cells ([1]; LS180, after 1 hour): 5.33 ± 0.43 % dose/100000 cells
uptake, percent dose converted to 100,000 cells ([1]; LS180, after 3 hours): 10.2 ± 0.97 % dose/100000 cells
uptake ratio relative to the normal cells (NIH3T3) ([1]; LS180 vs NIH3T3): about three
uptake ratio relative to the normal cells (NIH3T3) ([2]; SHIN-III vs NIH3T3): about seven
uptake, percent dose converted to 100,000 cells ([2]; after 30 minutes): 6.26 ± 0.73 % dose/100000 cells
uptake, percent dose converted to 100,000 cells ([2]; after 1 hour): 11.7 ± 1.16 % dose/100000 cells
uptake, percent dose converted to 100,000 cells ([2]; after 3 hours): 25.2 ± 2.42 % dose/100000 cells
uptake ratio relative to the normal cells (NIH3T3) (U87MG (glioma); U87MG vs NIH3T3): about 7 times
uptake, percent dose converted to 100,000 cells (U87MG (glioma); after 30 minutes): 3.19 ± 1.86 % dose/100000 cells
uptake, percent dose converted to 100,000 cells (U87MG (glioma); after 1 hour): 3.07 ± 0.09 % dose/100000 cells
uptake, percent dose converted to 100,000 cells (U87MG (glioma); after 3 hours): 5.32 ± 0.70 % dose/100000 cells
uptake, percent dose converted to 100,000 cells ([3]; after 30 minutes): 1.40 ± 0.03 % dose/100000 cells
uptake, percent dose converted to 100,000 cells ([3]; after 1 hour): 2.12 ± 0.14 % dose/100000 cells
uptake, percent dose converted to 100,000 cells ([3]; after 3 hours): 3.34 ± 0.18 % dose/100000 cells
accumulation in the tumor tissue and muscle tissue [4]: accumulate in a higher concentration in the tumor tissue than in the muscle
